Read-outs that look alike come from different tables or passages of the source.
What was measured:
[1] = Compound stability in human liver microsomes; assay type: in vitro ADME; settings: for half-life at 5 μM / CLint scaled at 5 μM: pH 7.4; for CLint scaled at 5 μM: human liver microsomes, in vivo CLint extrapolated
Description: (§1) Human or rat liver microsomes incubations were conducted in duplicate in polypropylene tubes. The typical incubation mixtures consisted of human or rat liver microsomes (0.5 mg protein/mL), compounds of interest (5 μM) and NADPH (1.0 mM) in a total volume of 200 μL potassium phosphate buffer (PBS, 100 mM, pH=7.4). Compounds were dissolved in DMSO and diluted with PBS such that the final concentration of DMSO was 0.05%. The enzymatic reactions were commenced with the addition of protein after a 3-min preincubation and incubated in a water bath open to the air at 37° C. Reactions were terminated at various time points (0, 5, 10, 15, 30, 60 min) by adding equal volume of ice-cold acetonitrile. The samples were stored at −80° C. until LC/MS/MS assays.
(§2) The concentrations of compounds in the incubation mixtures of human or rat liver microsomes were determined by a LC/MS/MS method. The ranges of the linearity in the concentration range were determined for each tested compounds.
(§3) A parallel incubation was performed using denatured microsomes as the negative control, and reactions were terminated at various time points (0, 15, 60 min) after incubation at 37° C.
(§4) Dextromethorphan (70 μM) was selected as the positive control, and reactions were terminated at various time points (0, 5, 10, 15, 30, 60 min) after incubation at 37° C. Both positive and negative control samples were included in each assay to ensure the integrity of the microsomal incubation system.
(§5) The concentrations of compounds in human or rat liver microsome incubations were plotted as a percentage of the relevant zero time point control for each reaction. The in vivo CLint were extrapolated (ref.: Naritomi Y, Terashita S, Kimura S, Suzuki A, Kagayama A, Sugiyama Y. “Prediction of human hepatic clearance from in vivo animal experiments and in vitro metabolic studies with liver microsomes from animals and humans”, Drug Metabolism and Disposition, 2001, 29, 1316-1324).

[2] = Compound stability in rat liver microsomes; assay type: in vitro ADME; settings: for half-life at 5 μM / CLint scaled at 5 μM: pH 7.4; for half-life at 5 μM / T1/2: rat liver microsomes 0.5 mg protein/mL, compound 5 μM, NADPH, 37° C.; for CLint scaled at 5 μM: rat liver microsomes, in vivo CLint extrapolated
Description: as §1, §2, §3, §4, §5

[3] = Pharmacokinetic profiles in rats; assay type: in vivo; settings: for F: oral dose generally 5 or 10 mg/kg; for Cl/F / AUC(0-t) / half-life / Vd: iv dosing; for AUC(0-t) / half-life / Vd: rat, plasma; for Vd: read-out: Vss
Description: The compounds disclosed herein are assessed in pharmacokinetic studies in mice, rats, dogs or monkeys. The compounds are administered as a water solution, 2% HPMC+1% TWEEN®80 in water solution, 5% DMSO+5% solutol in saline, 4% MC suspension or capsule. For the intravenous administration, the animals are generally given at 1 or 2 mg/kg dose. For the oral (p.o.) dosing, mice and rats are generally given 5 or 10 mg/kg dose, and dogs and monkeys are generally given 10 mg/kg dose. The blood samples (0.3 mL) are drawn at 0.25, 0.5, 1.0, 2.0, 3.0, 4.0, 6.0, 8.0, 12 and 24 h time points or 0.083, 0.25, 0.5, 1.0, 2.0, 4.0, 6.0, 8.0 and 24 h time points and centrifuged at 3,000 or 4000 rpm for 2 to 10 min. The plasma solutions are collected and stored at −20° C. or −70° C. until analyzed by LC/MS/MS as described above.

mTOR (h) = molecular target: T1, mTOR (h) (Homo sapiens, UniProt P42345); assay: mTOR (h) kinase assay; assay type: biochemical
T1 construct: purchased Millipore UK Ltd (assays run there as a service)
Description: mTOR (h) is incubated with 50 mM HEPES pH 7.5, 1 mM EDTA, 0.01% TWEEN®20, 2 mg/mL substrate, 3 mM Manganese Chloride and [γ-^33P-ATP] (specific activity approx. 500 cpm/pmol, concentration as required). The reaction is initiated by the addition of the MnATP mix. After incubation for 40 minutes at room temperature, the reaction is stopped by the addition of 3% phosphoric acid solution. Aliquote of the reaction (10 μL) is then spotted onto a P30 filtermat and washed three times for 5 minutes in 75 mM phosphoric acid and once in methanol prior to drying and scintillation counting.
(§6) The kinase assays described herein were performed at Millipore UK Ltd, Dundee Technology Park, Dundee DD2 1SW, UK.

PI3K p110α/p85α (h) = molecular target: T2, PI3K p110α/p85α (h) (Homo sapiens, UniProt P42336); assay: PI3K p110α/p85α (h) non-radioactive (HTRF) assay; assay type: biochemical
T2 construct: purchased Millipore UK Ltd (assays run there as a service)
T2 sequence (P42336 whole entry): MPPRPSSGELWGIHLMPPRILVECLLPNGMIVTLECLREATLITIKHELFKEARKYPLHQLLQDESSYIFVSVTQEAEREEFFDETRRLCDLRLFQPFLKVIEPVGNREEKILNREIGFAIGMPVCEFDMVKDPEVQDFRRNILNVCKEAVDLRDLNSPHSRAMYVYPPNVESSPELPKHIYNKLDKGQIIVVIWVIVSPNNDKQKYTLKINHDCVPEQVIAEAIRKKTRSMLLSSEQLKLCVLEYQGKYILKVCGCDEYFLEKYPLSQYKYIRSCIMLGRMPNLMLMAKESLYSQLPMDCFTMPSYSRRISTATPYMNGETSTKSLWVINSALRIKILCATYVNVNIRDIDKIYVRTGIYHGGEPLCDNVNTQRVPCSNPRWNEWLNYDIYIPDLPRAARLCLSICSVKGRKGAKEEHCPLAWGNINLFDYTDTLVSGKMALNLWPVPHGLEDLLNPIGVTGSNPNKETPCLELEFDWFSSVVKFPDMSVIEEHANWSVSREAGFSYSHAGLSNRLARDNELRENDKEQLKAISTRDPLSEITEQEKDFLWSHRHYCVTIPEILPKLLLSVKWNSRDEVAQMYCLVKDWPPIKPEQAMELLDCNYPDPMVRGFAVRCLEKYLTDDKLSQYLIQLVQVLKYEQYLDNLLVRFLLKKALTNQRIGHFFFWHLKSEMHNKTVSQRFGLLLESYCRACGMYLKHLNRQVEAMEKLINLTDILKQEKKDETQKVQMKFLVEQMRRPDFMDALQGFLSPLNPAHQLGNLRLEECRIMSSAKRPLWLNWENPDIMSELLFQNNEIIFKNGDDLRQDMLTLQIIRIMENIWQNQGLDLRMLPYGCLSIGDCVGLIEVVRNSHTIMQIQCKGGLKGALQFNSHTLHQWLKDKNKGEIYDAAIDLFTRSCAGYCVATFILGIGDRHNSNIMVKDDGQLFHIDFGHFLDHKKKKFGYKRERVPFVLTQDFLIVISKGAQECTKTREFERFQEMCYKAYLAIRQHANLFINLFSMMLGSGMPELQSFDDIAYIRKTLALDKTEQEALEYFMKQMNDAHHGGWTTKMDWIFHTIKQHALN
T2 sequence (P27986 whole entry partner): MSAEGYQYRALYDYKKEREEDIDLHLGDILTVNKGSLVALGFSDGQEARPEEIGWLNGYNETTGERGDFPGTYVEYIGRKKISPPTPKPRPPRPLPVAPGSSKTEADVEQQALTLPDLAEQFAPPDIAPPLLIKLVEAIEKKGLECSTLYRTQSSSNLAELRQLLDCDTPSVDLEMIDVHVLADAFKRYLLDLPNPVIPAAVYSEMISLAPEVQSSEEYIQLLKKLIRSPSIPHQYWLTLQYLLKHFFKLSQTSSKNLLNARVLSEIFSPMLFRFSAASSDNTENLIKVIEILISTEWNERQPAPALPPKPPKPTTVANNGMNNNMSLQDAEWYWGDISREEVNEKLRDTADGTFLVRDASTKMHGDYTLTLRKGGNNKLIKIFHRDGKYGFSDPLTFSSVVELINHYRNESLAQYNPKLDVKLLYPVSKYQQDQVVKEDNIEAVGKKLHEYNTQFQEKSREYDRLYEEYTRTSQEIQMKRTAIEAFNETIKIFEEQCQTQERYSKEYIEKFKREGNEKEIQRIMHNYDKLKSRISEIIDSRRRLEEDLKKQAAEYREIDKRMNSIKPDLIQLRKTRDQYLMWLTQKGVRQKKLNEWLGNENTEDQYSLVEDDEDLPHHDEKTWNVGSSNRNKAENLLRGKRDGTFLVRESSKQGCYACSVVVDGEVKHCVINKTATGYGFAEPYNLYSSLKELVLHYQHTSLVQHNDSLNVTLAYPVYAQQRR
Description: PI3K p110α/p85α (h) [Non-Radioactive Assay]
(§7) PI3K p110α/p85α (h) is incubated in assay buffer containing 10 μM phosphatidylinositol 4,5-bisphosphate and MgATP (concentration as required). The reaction is initiated by the addition of the ATP solution. After incubation for 30 minutes at room temperature, the reaction is stopped by the addition of stop solution containing EDTA and biotinylated phosphatidylinositol-3,4,5-trisphosphate. Finally, detection buffer is added, which contains europium-labelled anti-GST monoclonal antibody, GST-tagged GRP1 PH domain and streptavidin allophycocyanin. The plate is then read in time-resolved fluorescence mode and the homogenous time-resolved fluorescence (HTRF) signal is determined according to the formula HTRF=10000×(Em665 nm/Em620 nm).
as §6

PI3K p110β/p85α (h) = molecular target: T3, PI3K p110β/p85α (h) (Homo sapiens, UniProt P42338); assay: PI3K p110β/p85α (h) non-radioactive (HTRF) assay; assay type: biochemical
T3 construct: purchased Millipore UK Ltd (assays run there as a service)
T3 sequence (P42338 whole entry): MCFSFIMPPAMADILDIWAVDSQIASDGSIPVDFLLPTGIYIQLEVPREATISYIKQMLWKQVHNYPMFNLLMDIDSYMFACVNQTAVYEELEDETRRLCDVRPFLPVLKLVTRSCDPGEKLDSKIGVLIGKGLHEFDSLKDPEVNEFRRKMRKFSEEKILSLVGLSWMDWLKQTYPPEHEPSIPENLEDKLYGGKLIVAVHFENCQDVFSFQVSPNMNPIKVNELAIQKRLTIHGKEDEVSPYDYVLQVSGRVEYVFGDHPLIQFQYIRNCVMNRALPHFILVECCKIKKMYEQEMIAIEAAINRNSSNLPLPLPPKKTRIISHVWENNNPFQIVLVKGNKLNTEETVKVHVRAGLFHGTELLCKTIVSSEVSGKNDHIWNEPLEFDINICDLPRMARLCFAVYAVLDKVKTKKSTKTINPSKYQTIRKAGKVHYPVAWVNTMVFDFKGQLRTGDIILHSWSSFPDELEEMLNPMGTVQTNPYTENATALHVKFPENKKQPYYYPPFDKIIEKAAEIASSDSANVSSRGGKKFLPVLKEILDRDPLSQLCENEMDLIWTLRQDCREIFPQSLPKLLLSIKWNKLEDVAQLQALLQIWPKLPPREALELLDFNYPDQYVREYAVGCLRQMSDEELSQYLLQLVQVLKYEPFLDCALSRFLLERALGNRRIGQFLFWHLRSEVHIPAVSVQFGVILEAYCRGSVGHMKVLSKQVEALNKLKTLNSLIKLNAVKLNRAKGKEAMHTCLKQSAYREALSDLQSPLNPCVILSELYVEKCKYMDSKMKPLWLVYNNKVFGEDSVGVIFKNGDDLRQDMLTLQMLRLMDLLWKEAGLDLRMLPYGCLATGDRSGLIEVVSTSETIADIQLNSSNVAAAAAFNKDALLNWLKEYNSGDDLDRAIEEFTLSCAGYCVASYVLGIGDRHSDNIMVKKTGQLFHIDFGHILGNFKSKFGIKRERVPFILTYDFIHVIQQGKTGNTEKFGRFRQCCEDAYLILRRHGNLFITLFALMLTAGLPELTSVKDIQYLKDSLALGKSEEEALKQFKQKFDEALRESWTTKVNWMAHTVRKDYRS
T3 sequence (P27986 whole entry partner): as the sequence (P27986 whole entry partner) above
Description: PI3K p110β/p85α (h) [Non-Radioactive Assay]
as §7, with “(p110β/p85α)” for “p110α/p85α”, “phosphatidylinositol-4,5-bisphosphate” for “phosphatidylinositol 4,5-bisphosphate”, “MgATP mix.” for “ATP solution.”, “streptavidin-allophycocyanin.” for “streptavidin allophycocyanin.”
as §6

PI3K (p110δ/p85α) (h) = molecular target: T4, PI3K (p110δ/p85α) (h) (Homo sapiens, UniProt O00329); assay: PI3K (p110δ/p85α) (h) non-radioactive (HTRF) assay; assay type: biochemical
T4 construct: purchased Millipore UK Ltd (assays run there as a service)
T4 sequence (O00329 whole entry): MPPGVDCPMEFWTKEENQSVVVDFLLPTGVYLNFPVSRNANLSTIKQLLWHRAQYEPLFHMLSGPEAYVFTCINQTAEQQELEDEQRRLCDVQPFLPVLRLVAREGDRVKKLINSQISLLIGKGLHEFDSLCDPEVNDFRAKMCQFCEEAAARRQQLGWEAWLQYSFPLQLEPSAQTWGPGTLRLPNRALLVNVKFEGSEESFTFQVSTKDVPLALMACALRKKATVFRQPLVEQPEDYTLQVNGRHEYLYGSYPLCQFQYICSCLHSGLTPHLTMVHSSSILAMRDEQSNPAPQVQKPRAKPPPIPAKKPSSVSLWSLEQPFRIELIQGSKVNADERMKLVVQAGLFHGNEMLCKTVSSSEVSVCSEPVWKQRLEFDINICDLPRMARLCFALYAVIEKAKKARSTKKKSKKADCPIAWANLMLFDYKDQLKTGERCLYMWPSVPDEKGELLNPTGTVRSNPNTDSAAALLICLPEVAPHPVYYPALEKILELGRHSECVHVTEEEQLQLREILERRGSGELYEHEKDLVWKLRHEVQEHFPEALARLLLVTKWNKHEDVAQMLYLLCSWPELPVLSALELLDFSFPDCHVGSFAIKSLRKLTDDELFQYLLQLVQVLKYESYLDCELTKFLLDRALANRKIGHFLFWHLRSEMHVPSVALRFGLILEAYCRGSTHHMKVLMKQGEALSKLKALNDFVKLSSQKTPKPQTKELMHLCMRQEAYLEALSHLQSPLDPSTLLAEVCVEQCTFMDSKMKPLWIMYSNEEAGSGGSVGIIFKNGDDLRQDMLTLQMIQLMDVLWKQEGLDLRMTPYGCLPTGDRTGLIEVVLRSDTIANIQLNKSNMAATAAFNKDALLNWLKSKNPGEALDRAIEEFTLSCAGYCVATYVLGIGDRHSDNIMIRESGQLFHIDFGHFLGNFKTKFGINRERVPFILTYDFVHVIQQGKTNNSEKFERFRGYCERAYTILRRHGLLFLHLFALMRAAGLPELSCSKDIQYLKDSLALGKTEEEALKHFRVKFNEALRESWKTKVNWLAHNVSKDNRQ
T4 sequence (P27986 whole entry partner): as the sequence (P27986 whole entry partner) above
Description: PI3K (p110δ/p85α) (h) [Non-Radioactive Assay]
as §7, with “(p110δ/p85α)” for “p110α/p85α”, “phosphatidylinositol-4,5-bisphosphate” for “phosphatidylinositol 4,5-bisphosphate”, “MgATP mix.” for “ATP solution.”, “streptavidin-allophycocyanin.” for “streptavidin allophycocyanin.”
as §6

PI3K (p120γ) (h) = molecular target: T5, PI3K (p120γ) (h) (Homo sapiens, UniProt P48736); assay: PI3K (p120γ) (h) non-radioactive (HTRF) assay; assay type: biochemical
T5 construct: purchased Millipore UK Ltd (assays run there as a service)
T5 sequence (P48736 whole entry): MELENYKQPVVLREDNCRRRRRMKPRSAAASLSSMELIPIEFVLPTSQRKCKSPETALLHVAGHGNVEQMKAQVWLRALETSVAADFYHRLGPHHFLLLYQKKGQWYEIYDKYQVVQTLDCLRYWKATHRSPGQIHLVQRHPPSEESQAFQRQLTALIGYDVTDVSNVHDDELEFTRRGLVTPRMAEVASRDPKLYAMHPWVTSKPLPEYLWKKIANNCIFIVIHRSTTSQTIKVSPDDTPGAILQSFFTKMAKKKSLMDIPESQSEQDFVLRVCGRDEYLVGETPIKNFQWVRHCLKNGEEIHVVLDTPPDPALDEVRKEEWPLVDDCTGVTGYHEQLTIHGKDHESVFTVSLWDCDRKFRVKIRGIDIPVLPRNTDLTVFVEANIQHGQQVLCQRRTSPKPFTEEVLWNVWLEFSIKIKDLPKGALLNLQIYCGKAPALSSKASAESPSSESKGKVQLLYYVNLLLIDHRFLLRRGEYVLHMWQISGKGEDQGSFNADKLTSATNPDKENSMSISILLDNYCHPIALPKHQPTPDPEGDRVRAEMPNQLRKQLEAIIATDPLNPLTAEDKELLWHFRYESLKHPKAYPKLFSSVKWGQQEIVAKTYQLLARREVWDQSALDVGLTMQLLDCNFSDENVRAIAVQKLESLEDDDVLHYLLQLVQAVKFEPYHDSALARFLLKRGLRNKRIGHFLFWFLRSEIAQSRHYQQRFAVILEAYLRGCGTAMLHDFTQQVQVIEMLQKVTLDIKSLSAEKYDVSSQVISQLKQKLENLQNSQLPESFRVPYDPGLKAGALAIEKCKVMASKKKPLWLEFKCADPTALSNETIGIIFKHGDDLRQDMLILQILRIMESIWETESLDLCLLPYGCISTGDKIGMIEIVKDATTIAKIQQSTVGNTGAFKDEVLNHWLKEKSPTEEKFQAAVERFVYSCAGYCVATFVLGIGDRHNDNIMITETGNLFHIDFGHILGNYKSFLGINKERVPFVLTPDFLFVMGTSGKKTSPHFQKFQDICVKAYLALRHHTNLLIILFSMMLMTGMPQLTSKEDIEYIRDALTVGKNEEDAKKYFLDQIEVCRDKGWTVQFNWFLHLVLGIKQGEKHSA
Description: PI3K (p120γ) (h) [Non-Radioactive Assay]
as §7, with “(p120γ)” for “p110α/p85α”, “phosphatidylinositol-4,5-bisphosphate” for “phosphatidylinositol 4,5-bisphosphate”, “MgATP mix.” for “ATP solution.”, “streptavidin-allophycocyanin.” for “streptavidin allophycocyanin.”
as §6

[4] = human liver microsomes 0.5 mg protein/mL, compound 5 μM, NADPH, 37° C.

| half-life at 5 μM [1, 4] | CLint scaled at 5 μM [1] | half-life at 5 μM [2] | CLint scaled at 5 μM [2] | F ([3]; iv dose 1 mg/kg) | Cl/F ([3]; 1 mg/kg) | AUC(0-t) ([3]; 1 mg/kg) | half-life ([3]; 1 mg/kg) | Vd ([3]; 1 mg/kg) | T1/2 [2] | Compound | further results |
| --- | --- | --- | --- | --- | --- | --- | --- | --- | --- | --- | --- |
| 130 h | 0.22 mL/min/kg | 21 h | 1.97 mL/min/kg | 103.40% | 0.33 mL/min/kg | 41800 ng·h/mL | 10.8 h | 0.28 L/kg |  | COc1ncc(-c2ccn3ncc(C#CC(C)(C)O)c3c2)cc1NS(=O)(=O)c1ccc(F)cc1F [Ex. 8, 2,4-difluoro-N-(5-(3-(3-hydroxy-3-methylbut-1-yn-1-yl)pyrazolo[1,5-a]pyridin-5-yl)-2-methoxypyridin-3-yl)benzenesulfonamide] |  |
| 5.05 h | 5.74 mL/min/kg | 3.61 h | 11.5 mL/min/kg |  |  |  |  |  |  | COc1ncc(-c2ccn3ncc(C#CC(C)O)c3n2)cc1NS(=O)(=O)c1ccc(F)cc1F (centres unmarked) [Ex. 5, 2,4-difluoro-N-(5-(3-(3-hydroxybut-1-yn-1-yl)pyrazolo[1,5-a]pyrimidin-5-yl)-2-methoxypyridin-3-yl)benzenesulfonamide] | F ([3]; iv dose 2 mg/kg): 96.20%; Cl/F ([3]; 2 mg/kg): 0.83 mL/min/kg; AUC(0-t) ([3]; 2 mg/kg): 35200 ng·h/mL; half-life ([3]; 2 mg/kg): 3 h; Vd ([3]; 2 mg/kg): 0.2 L/kg; IC50 (mTOR (h)): 7 nM; IC50 (PI3K p110α/p85α (h)): 3 nM; IC50 (PI3K p110β/p85α (h)): 75 nM; IC50 (PI3K (p110δ/p85α) (h)): 1 nM; IC50 (PI3K (p120γ) (h)): 6 nM |
|  |  |  |  | 50.80% | 0.33 mL/min/kg | 40900 ng·h/mL | 11 h | 0.24 L/kg | ∞ | COc1ncc(-c2ccn3ncc(C#CC(C)(C)O)c3n2)cc1NS(=O)(=O)c1ccc(F)cc1F [Ex. 6, 2,4-difluoro-N-(5-(3-(3-hydroxy-3-methylbut-1-yn-1-yl)pyrazolo[1,5-a]pyrimidin-5-yl)-2-methoxypyridin-3-yl)benzenesulfonamide] | T1/2 [1, 4]: ∞ |
| 20.4 h | 2.03 mL/min/kg |  |  | 112.95% | 12.7 mL/min/kg | 1240 ng·h/mL | 2.74 h | 1.72 L/kg | ∞ | COc1ncc(-c2ccn3ncc(C#N)c3c2)cc1NS(=O)(=O)CC(F)(F)F [Ex. 10, N-(5-(3-cyanopyrazolo[1,5-a]pyridin-5-yl)-2-methoxypyridin-3-yl)-2,2,2-trifluoroethanesulfonamide] |  |
| 55.7 h | 0.52 mL/min/kg | 1.54 h | 26.9 mL/min/kg | 80.10% | 3.17 mL/min/kg | 5330 ng·h/mL | 3.94 h | 0.63 L/kg |  | CC#Cc1cnn2ccc(-c3cnc(OC)c(NS(=O)(=O)c4ccc(F)cc4F)c3)nc12 [Ex. 7, 2,4-difluoro-N-(2-methoxy-5-(3-(prop-1-yn-1-yl)pyrazolo[1,5-a]pyrimidin-5-yl)pyridin-3-yl)benzenesulfonamide] |  |
